BindingDB's records for doi:10.1016/j.ejmech.2018.07.023 (University of Copenhagen, 2018)
*1 amine or outer side, *2 acyl side, *3 side chain or, on linkers, in order; H or OH if unused. Where a SMILES comes first, the peptide text is derived from it. Bridges are numbered along the chain shown (N, C = ends). [ ]: non-standard residue; d: D form. Leu(3R-O(AcLeu(3R-OH))) = CC(=O)N[C@H](C(=O)O[C@H](C(C)C)[C@H](N)C(=O)O)[C@H](O)C(C)C; X1 = CC(C)[C@@H](O[*:3])[C@H](N[*:1])C(=O)[*:2]; NMeT = CN[C@H](C(=O)O)[C@@H](C)O; dPhLac = O=C(O)[C@H](O)Cc1ccccc1; NMeA = CN[C@@H](C)C(=O)O; NMeDha = C=C(NC)C(=O)O

test: Inhibition of recombinant rat Gi coupled mGlu2 receptor expressed in CHO cells assessed as suppression of L-glutamate-induced decrease in cAMP level pretreated for 1 hr followed by L-glutamate/forskolin addition and measured after 30 mins by FRET assay

| IC50 [µM] | Structure (SMILES) |
| --- | --- |
| > 100 | C=C1C(=O)N[C@@H](C)C(=O)N(C)[C@@H](C)C(=O)N[C@@H]([C@H](OC(=O)[C@@H](NC(C)=O)[C@H](O)C(C)C)C(C)C)C(=O)N(C)[C@@H]([C@@H](C)OC)C(=O)O[C@H](C)[C@H](NC(C)=O)C(=O)O[C@H](CC(C)C)C(=O)N1C |
| > 100 | CO[C@H](C)[C@H]1C(=O)O[C@H](C)[C@H](NC(C)=O)C(=O)O[C@H](CC(C)C)C(=O)N(C)[C@H](CO)C(=O)N[C@@H](C)C(=O)N(C)[C@@H](C)C(=O)N[C@@H]([C@H](OC(=O)[C@@H](NC(C)=O)[C@H](O)C(C)C)C(C)C)C(=O)N1C |
| > 50 | C=C1C(=O)N[C@@H](C)C(=O)N(C)[C@@H](C)C(=O)N[C@@H]([C@H](OC(=O)[C@@H](NC(C)=O)[C@H](O)C(C)C)C(C)C)C(=O)N(C)[C@@H]([C@@H](C)OC)C(=O)O[C@H](C(C)C)[C@H](NC(C)=O)C(=O)O[C@H](Cc2ccccc2)C(=O)N1C (Ac-[X1][dPhLac][NMeDha]A[NMeA][Leu(3R-O(AcLeu(3R-OH)))][NMeT](Me); ester 1-C) |

The remaining lines, values behind:

| Structure (SMILES) | IC50 [µM] |
| --- | --- |
| C=C1C(=O)N[C@@H](C)C(=O)N(C)[C@@H](C)C(=O)N[C@@H]([C@H](OC(=O)[C@@H](NC(C)=O)[C@H](O)C(C)C)C(C)C)C(=O)N(C)[C@@H]([C@@H](C)OC)C(=O)O[C@@H](C)[C@H](NC(C)=O)C(=O)O[C@H](Cc2ccccc2)C(=O)N1C | > 50 |
| C=C1C(=O)N[C@@H](C)C(=O)N(C)[C@@H](C)C(=O)N[C@@H]([C@H](OC(=O)[C@@H](NC(=O)CCCCC)[C@H](O)C(C)C)C(C)C)C(=O)N(C)[C@@H]([C@@H](C)OC)C(=O)O[C@H](C)[C@H](NC(C)=O)C(=O)O[C@H](Cc2ccccc2)C(=O)N1C | > 50 |
| C=C1C(=O)N[C@@H](C)C(=O)N(C)[C@@H](C)C(=O)N[C@@H]([C@H](OC(=O)[C@@H](NC(C)=O)[C@H](O)C(C)C)C(C)C)C(=O)N(C)[C@@H]([C@@H](C)OC)C(=O)OC[C@H](NC(C)=O)C(=O)O[C@H](Cc2ccccc2)C(=O)N1C | > 50 |
| C=C1C(=O)N[C@@H](C)C(=O)N(C)[C@@H](C)C(=O)N[C@@H]([C@H](OC(=O)[C@@H](NC(=O)c2ccccc2)[C@H](O)C(C)C)C(C)C)C(=O)N(C)[C@@H]([C@@H](C)OC)C(=O)O[C@H](C)[C@H](NC(C)=O)C(=O)O[C@H](Cc2ccccc2)C(=O)N1C | > 100 |
| C=C1C(=O)N[C@@H](C)C(=O)N(C)[C@@H](C)C(=O)N[C@@H]([C@H](OC(=O)[C@@H](NC(C)=O)[C@H](O)C(C)C)C(C)C)C(=O)N(C)[C@@H]([C@@H](C)OC)C(=O)O[C@H](C)[C@H](NC(C)=O)C(=O)O[C@H](Cc2ccccc2)C(=O)N1C | > 100 |
